Patent publication US11819492B2, “Natural product derivatives for inhibiting cellular necroptosis, ferroptosis and oxytosis” (Institut National de la Sante et de la Recherche Medicale …, priority 2016, dated 2023)

Experiments:
[1] = tested on: Porcine LLC-PK1 cells (kidney proximal tubule cell line); test: Cold-induced cell death (cold storage), MTS viability assay; type: cell-based; conditions: 0.01-50.00 μM, 24 hours at 4° C., FIGS. 16a, 16b
Description: At it was previously shown (Ahlenstiel et al. Transplantation […], 81(2), 231-239), cold storage induces a cell-death process. Porcine LLC-PK1 cells (kidney proximal tubule cell line) were stored at approximately 4° C. during 24 hours with or without the tested molecules. […] Cells were then incubated at 37° C., 5% CO2 before performing MTS viability assay. Cell viability was monitored using CellTiter 96® AQueous Non-Radioactive Cell Proliferation Assay (Promega, Fitchburg, WI, USA), based on the water-soluble tetrazolium compound MTS (3-[4,5-dimethylthiazol-2-yl]-5-[3-carboxymethoxy-phenyl]-2-[4-sulfophenyl]-2H-tetrazolium, inner salt) according to the manufacturers instructions.

[2] = tested on: rat embryonic myoblastic H9C2 cells; test: H2O2-induced necrosis, LDH release assay; type: cell-based; conditions: 10 μM, 2 hours pretreatment, 800 μM H2O2 for 24 hours, FIG. 17
Description: The rat embryonic myoblastic H9C2 cells were cultured at 10,000 cells/well in 96-well-plates for 24 hours at 37° C./5% CO2. […] LB corresponds to cells treated with a lysis buffer (100% of cell death). Cell cytotoxicity was determined by a colorimetric assay quantitatively measuring lactate dehydrogenase (LDH) released […].

[3] = tested on: Human retinal pigment epithelial cell line, ARPE-19; conditions: 200 μM, Hanus et al. 2016; cited from earlier work

Row | SMILES | protection from death induced by cold storage [1] | protection from death induced by H2O2 (LDH release) [2] | inhibition of NaIO3-induced necroptosis in retinal pigment epithelial cell line [3]
1 | CN1C(=O)NC(Cc2c[nH]c3c(Cl)cccc23)C1=O (stereo not drawn) [Nec-1s, Necrostatin-1s, reference compound] | inactive | less effective | 
2 | CN1C(=O)C(Cc2c[nH]c3ccccc23)NC1=S (stereo not drawn) [necrostatin-1] |  |  | inhibited
